# Where two headings read alike, the source gives them in different places.
# Experiments:
# hGLP1R = biological target: T1, hGLP1R (Homo sapiens, UniProt P43220); assay: hGLP1R CreLuc assay in 0.5% and 100% plasma (HEK-293 CRE-luciferase reporter cells); assay type: cell-based; settings: HEK-293 reporter cells
# T1 construct: expressed in transfected cells; host or cells: HEK-293 CRE-luciferase reporter cells
# hGIPR = biological target: T2, hGIPR (Homo sapiens, UniProt P48546); assay: hGIPR CreLuc assay in 0.5% and 100% plasma (CHO CRE-luciferase reporter cells); assay type: cell-based
# T2 construct: expressed in transfected cells; host or cells: CHO CRE-luciferase reporter cells
# T2 sequence (P48546 22-466): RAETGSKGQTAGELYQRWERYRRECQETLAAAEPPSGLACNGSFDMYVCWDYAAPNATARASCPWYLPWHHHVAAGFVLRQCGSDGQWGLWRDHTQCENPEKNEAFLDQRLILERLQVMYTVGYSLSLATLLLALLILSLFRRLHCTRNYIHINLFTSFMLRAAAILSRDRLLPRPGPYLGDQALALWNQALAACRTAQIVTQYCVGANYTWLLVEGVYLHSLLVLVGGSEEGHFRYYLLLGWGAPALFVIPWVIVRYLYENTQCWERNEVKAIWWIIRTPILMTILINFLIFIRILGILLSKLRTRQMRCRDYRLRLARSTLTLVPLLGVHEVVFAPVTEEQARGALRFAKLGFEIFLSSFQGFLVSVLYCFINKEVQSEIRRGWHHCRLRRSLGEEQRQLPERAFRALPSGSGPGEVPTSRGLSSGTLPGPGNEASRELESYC
# hNPY2R = biological target: T3, hNPY2R (Homo sapiens, UniProt P49146); assay: hNPY2R CreLuc assay in 0.5% and 100% plasma (HEK-293 CRE-luciferase reporter cells); assay type: cell-based; settings: HEK-293 reporter cells
# T3 construct: expressed in transfected cells; host or cells: HEK-293 CRE-luciferase reporter cells
# T3 sequence (P49146 1-381): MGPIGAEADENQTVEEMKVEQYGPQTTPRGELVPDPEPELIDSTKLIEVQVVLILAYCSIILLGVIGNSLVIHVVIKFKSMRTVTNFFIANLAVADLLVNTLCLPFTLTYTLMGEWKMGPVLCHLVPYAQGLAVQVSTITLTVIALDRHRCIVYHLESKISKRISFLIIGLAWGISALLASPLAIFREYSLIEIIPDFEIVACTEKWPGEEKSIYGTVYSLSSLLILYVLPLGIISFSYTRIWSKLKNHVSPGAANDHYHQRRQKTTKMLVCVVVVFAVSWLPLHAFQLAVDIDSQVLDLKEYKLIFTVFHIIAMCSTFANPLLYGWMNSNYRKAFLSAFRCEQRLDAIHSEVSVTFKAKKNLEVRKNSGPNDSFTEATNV
# [1] = Solubility in 0.1 M phosphate buffer at pH 7; assay type: physicochemical; settings: 0.1 M phosphate buffer at pH 7, 10 mg/mL final peptide concentration, shaking 2 hours at room temperature, peptides as TFA-salts; measured sample pH 6.5-7.0
# [2] = 0.5% human plasma, read-out: hGLP1R 0.5% hP
# [3] = 0.5% human plasma, read-out: hGIPR 0.5% hP
# [4] = 100% human plasma, read-out: hNPY2R 100% hP
# [5] = 100% human plasma, read-out: hGLP1R 100% hP
# T1 sequence (P43220 24-463): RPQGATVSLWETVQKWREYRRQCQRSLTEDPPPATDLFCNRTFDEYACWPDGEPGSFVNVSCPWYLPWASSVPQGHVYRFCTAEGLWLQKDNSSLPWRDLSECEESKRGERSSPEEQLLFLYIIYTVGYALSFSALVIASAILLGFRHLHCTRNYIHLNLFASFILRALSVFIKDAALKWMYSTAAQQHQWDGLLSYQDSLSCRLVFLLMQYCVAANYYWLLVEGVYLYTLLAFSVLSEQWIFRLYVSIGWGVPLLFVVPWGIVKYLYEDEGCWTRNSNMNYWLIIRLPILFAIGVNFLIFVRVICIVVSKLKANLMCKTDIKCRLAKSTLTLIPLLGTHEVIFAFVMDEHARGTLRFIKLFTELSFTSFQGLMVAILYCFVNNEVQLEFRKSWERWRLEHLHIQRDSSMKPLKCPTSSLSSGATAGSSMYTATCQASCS
Structure (SMILES),EC50 (hGLP1R; [2]),EC50 (hGIPR; [3]),"EC50 (hGIPR; 100% human plasma, read-out: hGIPR 100% hP)",EC50 (hNPY2R; [4]),solubility at 2 h [1],EC50 (hGLP1R; [5]),"EC50 (hNPY2R; 0.5% human plasma, read-out: hNPY2R 0.5% hP)"
"CC[C@H](C)[C@H](NC(=O)[C@H](CC(C)C)NC(=O)[C@H](Cc1c[nH]cn1)NC(=O)[C@H](CCCNC(=N)N)NC(=O)[C@@H](NC(=O)[C@H](Cc1ccccc1)NC(=O)[C@H](CCC(=O)O)NC(=O)C(C)(C)NC(=O)[C@H](CCC(N)=O)NC(=O)[C@H](C)NC(=O)[C@H](CCC(N)=O)NC(=O)[C@H](CCCCN)NC(=O)[C@H](CCC(=O)O)NC(=O)[C@H](CC(C)C)NC(=O)C(C)(C)NC(=O)[C@@H](NC(=O)[C@H](CO)NC(=O)[C@H](Cc1ccc(O)cc1)NC(=O)[C@H](CC(=O)O)NC(=O)[C@H](CO)NC(=O)[C@@H](NC(=O)[C@H](Cc1ccccc1)NC(=O)[C@@H](NC(=O)CNC(=O)[C@H](CCC(=O)O)NC(=O)C(C)(C)NC(=O)[C@@H](N)Cc1ccc(O)cc1)[C@@H](C)O)[C@@H](C)O)[C@@H](C)CC)C(C)C)C(=O)N[C@@H](CC(N)=O)C(=O)N[C@@H](CCCCNC(=O)COCCOCCNC(=O)COCCOCCNC(=O)CC[C@H](NC(=O)CC[C@H](NC(=O)CC[C@H](NC(=O)CC[C@H](NC(=O)CCCCCCCCCCCCCCCCC(=O)O)C(=O)O)C(=O)O)C(=O)O)C(=O)O)C(=O)NC(C)(C)C(=O)N[C@H](C(=O)N[C@@H](CCCNC(=N)N)C(=O)N[C@@H](CCC(N)=O)C(=O)N[C@@H](CCCNC(=N)N)C(=O)N[C@@H](Cc1ccc(O)cc1)C(N)=O)[C@@H](C)O [Compound 73, Y-Aib-E-G-T-F-T-S-D-Y-S-I-Aib-L-E-K-Q-A-Q-Aib-E-F-V-R-H-L-I-N-K(1,3)-Aib-T-R-Q-R-Y-NH2.C18DA-gGlu-gGlu-gGlu-gGlu-OEG-OEG(1,2)]",0.4 nM,0.4 nM,5.9 nM,136 nM,4900 µg/mL,–,–
"CC[C@H](C)[C@H](NC(=O)[C@H](CC(C)C)NC(=O)[C@H](Cc1c[nH]cn1)NC(=O)[C@H](CCCNC(=N)N)NC(=O)[C@@H](NC(=O)[C@H](Cc1ccccc1)NC(=O)[C@H](C)NC(=O)C(C)(C)NC(=O)[C@H](CCC(N)=O)NC(=O)[C@H](C)NC(=O)[C@H](CCC(N)=O)NC(=O)[C@H](CCCCN)NC(=O)[C@H](CCC(=O)O)NC(=O)[C@H](CC(C)C)NC(=O)C(C)(C)NC(=O)[C@@H](NC(=O)[C@H](CO)NC(=O)[C@H](Cc1ccc(O)cc1)NC(=O)[C@H](CC(=O)O)NC(=O)[C@H](CO)NC(=O)[C@@H](NC(=O)[C@H](Cc1ccccc1)NC(=O)[C@@H](NC(=O)CNC(=O)[C@H](CCC(=O)O)NC(=O)C(C)(C)NC(=O)[C@@H](N)Cc1ccc(O)cc1)[C@@H](C)O)[C@@H](C)O)[C@@H](C)CC)C(C)C)C(=O)N[C@@H](CC(N)=O)C(=O)N[C@@H](CCCCNC(=O)[C@@H](N)CCCNC(=O)CC[C@H](NC(=O)CC[C@H](NC(=O)CC[C@H](NC(=O)CC[C@H](NC(=O)CC[C@H](NC(=O)CC[C@H](NC(=O)CCCCCCCCCCCCCCCCC(=O)O)C(=O)O)C(=O)O)C(=O)O)C(=O)O)C(=O)O)C(=O)O)C(=O)NC(C)(C)C(=O)N[C@H](C(=O)N[C@@H](CCCNC(=N)N)C(=O)N[C@@H](CCC(N)=O)C(=O)N[C@@H](CCCNC(=N)N)C(=O)N[C@@H](Cc1ccc(O)cc1)C(N)=O)[C@@H](C)O [Compound 87, Y-Aib-E-G-T-F-T-S-D-Y-S-I-Aib-L-E-K-Q-A-Q-Aib-A-F-V-R-H-L-I-N-K(1,3)-Aib-T-R-Q-R-Y-NH2.C18DA-gGlu-gGlu-gGlu-gGlu-gGlu-gGlu-dtOrn(1,2)]",1.7 nM,0.2 nM,–,57.9 nM,4900 µg/mL,–,–
"CC[C@H](C)[C@H](NC(=O)[C@H](CC(C)C)NC(=O)[C@H](Cc1c[nH]cn1)NC(=O)[C@H](CCCNC(=N)N)NC(=O)[C@@H](NC(=O)[C@H](Cc1ccccc1)NC(=O)[C@H](C)NC(=O)C(C)(C)NC(=O)[C@H](CCC(N)=O)NC(=O)[C@H](C)NC(=O)[C@H](CCC(N)=O)NC(=O)[C@H](CCCCN)NC(=O)[C@H](CCC(=O)O)NC(=O)[C@H](CC(C)C)NC(=O)C(C)(C)NC(=O)[C@@H](NC(=O)[C@H](CO)NC(=O)[C@H](Cc1ccc(O)cc1)NC(=O)[C@H](CC(=O)O)NC(=O)[C@H](CO)NC(=O)[C@@H](NC(=O)[C@H](Cc1ccccc1)NC(=O)[C@@H](NC(=O)CNC(=O)[C@H](CCC(=O)O)NC(=O)C(C)(C)NC(=O)[C@@H](N)Cc1ccc(O)cc1)[C@@H](C)O)[C@@H](C)O)[C@@H](C)CC)C(C)C)C(=O)N[C@@H](CC(N)=O)C(=O)N[C@@H](CCCCNC(=O)[C@@H](N)CCCNC(=O)CC[C@H](NC(=O)CC[C@H](NC(=O)CC[C@H](NC(=O)CC[C@H](NC(=O)CC[C@H](NC(=O)CC[C@H](NC(=O)CCCCCCCCCCCCCCCCCCC(=O)O)C(=O)O)C(=O)O)C(=O)O)C(=O)O)C(=O)O)C(=O)O)C(=O)NC(C)(C)C(=O)N[C@H](C(=O)N[C@@H](CCCNC(=N)N)C(=O)N[C@@H](CCC(N)=O)C(=O)N[C@@H](CCCNC(=N)N)C(=O)N[C@@H](Cc1ccc(O)cc1)C(N)=O)[C@@H](C)O [Compound 97, Y-Aib-E-G-T-F-T-S-D-Y-S-I-Aib-L-E-K-Q-A-Q-Aib-A-F-V-R-H-L-I-N-K(1,3)-Aib-T-R-Q-R-Y-NH2.C20DA-gGlu-gGlu-gGlu-gGlu-gGlu-gGlu-dtOrn(1,2)]",3.8 nM,0.6 nM,–,135 nM,4700 µg/mL,–,–
"CC[C@H](C)[C@H](NC(=O)[C@H](CC(C)C)NC(=O)[C@H](Cc1c[nH]cn1)NC(=O)[C@H](CCCNC(=N)N)NC(=O)[C@@H](NC(=O)[C@H](Cc1ccccc1)NC(=O)[C@H](C)NC(=O)C(C)(C)NC(=O)[C@H](CCC(=O)O)NC(=O)[C@H](C)NC(=O)[C@H](CCC(N)=O)NC(=O)[C@H](CCCCN)NC(=O)[C@H](CCC(=O)O)NC(=O)[C@H](CC(C)C)NC(=O)[C@](C)(CC(C)C)NC(=O)[C@@H](NC(=O)[C@H](CO)NC(=O)[C@H](Cc1ccc(O)cc1)NC(=O)[C@H](CC(=O)O)NC(=O)[C@H](CO)NC(=O)[C@@H](NC(=O)[C@H](Cc1ccccc1)NC(=O)[C@@H](NC(=O)CNC(=O)[C@H](CCC(=O)O)NC(=O)C(C)(C)NC(=O)[C@@H](N)Cc1ccc(O)cc1)[C@@H](C)O)[C@@H](C)O)[C@@H](C)CC)C(C)C)C(=O)N[C@@H](CC(N)=O)C(=O)N[C@@H](CCCCNC(=O)[C@@H](N)CCCCNC(=O)CC[C@H](NC(=O)CC[C@H](NC(=O)CC[C@H](NC(=O)CC[C@H](NC(=O)CC[C@H](NC(=O)CC[C@H](NC(=O)CCCCCCCCCCCCCCCCCCC(=O)O)C(=O)O)C(=O)O)C(=O)O)C(=O)O)C(=O)O)C(=O)O)C(=O)NC(C)(C)C(=O)N[C@H](C(=O)N[C@@H](CCCNC(=N)N)C(=O)N[C@@H](CCC(N)=O)C(=O)N[C@@H](CCCNC(=N)N)C(=O)N[C@@H](Cc1ccc(O)cc1)C(N)=O)[C@@H](C)O [Compound 103, Y-Aib-E-G-T-F-T-S-D-Y-S-I-aMeL-L-E-K-Q-A-E-Aib-A-F-V-R-H-L-I-N-K(1,3)-Aib-T-R-Q-R-Y-NH2.C20DA-gGlu-gGlu-gGlu-gGlu-gGlu-gGlu-eLys(1,2)]",0.4 nM,0.2 nM,–,131 nM,9700 µg/mL,0.6 nM,–
"CC[C@H](C)[C@H](NC(=O)[C@H](CC(C)C)NC(=O)[C@H](Cc1c[nH]cn1)NC(=O)[C@H](CCCNC(=N)N)NC(=O)[C@@H](NC(=O)[C@H](Cc1ccccc1)NC(=O)[C@H](C)NC(=O)C(C)(C)NC(=O)[C@H](CCC(N)=O)NC(=O)[C@H](C)NC(=O)[C@H](CCC(N)=O)NC(=O)[C@H](CCCCN)NC(=O)[C@H](CC(=O)O)NC(=O)[C@H](CC(C)C)NC(=O)C(C)(C)NC(=O)[C@@H](NC(=O)[C@H](CO)NC(=O)[C@H](Cc1ccc(O)cc1)NC(=O)[C@H](CC(=O)O)NC(=O)[C@H](CO)NC(=O)[C@@H](NC(=O)[C@H](Cc1ccccc1)NC(=O)[C@@H](NC(=O)CNC(=O)[C@H](CCC(=O)O)NC(=O)C(C)(C)NC(=O)[C@@H](N)Cc1ccc(O)cc1)[C@@H](C)O)[C@@H](C)O)[C@@H](C)CC)C(C)C)C(=O)N[C@@H](CC(N)=O)C(=O)N[C@@H](CCCCNC(=O)[C@@H](N)CCCCNC(=O)CC[C@H](NC(=O)CC[C@H](NC(=O)CC[C@H](NC(=O)CC[C@H](NC(=O)CC[C@H](NC(=O)CC[C@H](NC(=O)CCCCCCCCCCCCCCCCC(=O)O)C(=O)O)C(=O)O)C(=O)O)C(=O)O)C(=O)O)C(=O)O)C(=O)NC(C)(C)C(=O)N[C@H](C(=O)N[C@@H](CCCNC(=N)N)C(=O)N[C@@H](CCC(N)=O)C(=O)N[C@@H](CCCNC(=N)N)C(=O)N[C@@H](Cc1ccc(O)cc1)C(N)=O)[C@@H](C)O [Compound 105, Y-Aib-E-G-T-F-T-S-D-Y-S-I-Aib-L-D-K-Q-A-Q-Aib-A-F-V-R-H-L-I-N-K(1,3)-Aib-T-R-Q-R-Y-NH2.C18DA-gGlu-gGlu-gGlu-gGlu-gGlu-gGlu-eLys(1,2)]",0.3 nM,0.4 nM,–,–,8000 µg/mL,3.4 nM,19.9 nM

# Source: patent publication US20250382344A1, “Soluble GLP1/GIP/NPY2 Receptor Triple Agonists” (Boehringer Ingelheim International GmH, priority 2024, published 2025)
